Assay results: patent US20230041563A1, “N-(1,3,4-OXADIAZOL-2-YL)ARYLCARBOXAMIDES OR SALTS THEREOF, PREPARATION METHODS, HERBICIDAL COMPOSITIONS AND USES THEREOF” (priority 2018, published 2023)

Assays:
Experiment in all cases: Weeding effect in post-emergence stage (greenhouse pot spray)
Format in all cases: in vivo
[1] = test system: Echinochloa crusgalli
Excerpt: (§1) The activity level criteria for plant damage (i.e., growth control rate) are as follows:
(§2) The above growth control rates are fresh weight control rates.
(§3) Experiment on weeding effect in post-emergence stage: monocotyledonous and dicotyledonous weed seeds (Descurainia sophia, Capsella bursa-pastoris, Abutilon theophrasti, Galium aparine, Stellaria media, Lithospermum arvense, rorippa indica, Alopecurus aequalis, Beckmannia syzigachne, Sclerochloa dura, Phleum paniculatum, Bromus japonicus, Aegilops tauschii, Phalaris arundinacea, Amaranthus retroflexus, Chenopodiaceae, Commelina communis, Sonchus arvensis, convolvulus arvensis, Cirsium setosum, Solanum nigrum, Acalypha australis, Digitaria sanguinalis, Echinochloa crusgalli, Setaria viridis, Setaria glauca, Leptochloa chinensis, Monochoria vaginalis, Sagittaria trifolia, Scirpus juncoides, Cyperus rotundus, Cyperus iria, Cyperus difformis, Fimbristylis, Portulaca oleracea, Xanthium sibiricum, Pharbitis nil) and major crop seeds (wheat, corn, rice, soybean, cotton, oilseed rape, millet, sorghum, potato, sesame, ricinus) were placed in plastic pots filled with soil, then covered with 0.5-2 cm of soil, allowed to grow in a good greenhouse environment. After 2 weeks of sowing, the test plants were treated in the 2 to 3 leaf stage. The tested compounds of the present invention were respectively dissolved in acetone, then added with Tween 80 and 1.5 liter/ha of emulsifiable concentrate of methyl oleate as synergist, diluted with a certain amount of water to obtain a solution with a certain concentration, and sprayed with a spray tower onto the plants. After the application, the plants were cultured for 3 weeks in the greenhouse, and then the experimental results of the weeding were counted. […]

[2] = test system: Setaria viridis
Excerpt: as §1, §2, §3

[3] = test system: Digitaria sanguinalis
Excerpt: as §1, §2, §3

| Structure (SMILES) | Echinochloa crusgali (activity level) ([1]; Table 3, dose 500 g a.i./ha) | Setaria viridis (activity level) ([2]; Table 3, dose 500 g a.i./ha) | Digitaria sanguinahs (activity level) ([3]; Table 3, dose 500 g a.i./ha) | also measured |
| --- | --- | --- | --- | --- |
| Cc1nnc(NC(=O)c2ccc(C(F)(F)F)c([S@@+]([O-])CCC(F)F)c2F)o1 [1-405 (R-configuration)] |  |  |  | Echinochloa crusgali (activity level) ([1]; Table 3, dose 125 g a.i./ha): 5 (Level 5: growth control rate is above 85%); Setaria viridis (activity level) ([2]; Table 3, dose 125 g a.i./ha): 5 (Level 5: growth control rate is above 85%); Digitaria sanguinahs (activity level) ([3]; Table 3, dose 125 g a.i./ha): 5 (Level 5: growth control rate is above 85%) |
| Cc1nnc(NC(=O)c2ccc(C(F)(F)F)c([S@@+]([O-])CCCC(F)(F)F)c2F)o1 [1-411 (R-configuration)] |  |  |  | Echinochloa crusgali (activity level) ([1]; Table 3, dose 250 g a.i./ha): 5 (Level 5: growth control rate is above 85%); Setaria viridis (activity level) ([2]; Table 3, dose 250 g a.i./ha): 5 (Level 5: growth control rate is above 85%); Digitaria sanguinahs (activity level) ([3]; Table 3, dose 250 g a.i./ha): 5 (Level 5: growth control rate is above 85%) |
| Cc1nnc(NC(=O)c2ccc(C(F)(F)F)c([S@+]([O-])CCC(F)(F)C(F)(F)F)c2F)o1 [1-412 (R-configuration)] | 5 (Level 5: growth control rate is above 85%) | 5 (Level 5: growth control rate is above 85%) | 5 (Level 5: growth control rate is above 85%) |  |
| Cc1nnc(NC(=O)c2ccc(C(F)(F)F)c([S@@+]([O-])CCC(F)(C(F)(F)F)C(F)(F)F)c2F)o1 [1-413 (R-configuration)] | 5 (Level 5: growth control rate is above 85%) | 5 (Level 5: growth control rate is above 85%) | 5 (Level 5: growth control rate is above 85%) |  |
| Cc1nnc(NC(=O)c2ccc(C(F)(F)F)c([S@@+]([O-])CCC#N)c2F)o1 [1-427 (R-configuration)] | 5 (Level 5: growth control rate is above 85%) | 5 (Level 5: growth control rate is above 85%) | 5 (Level 5: growth control rate is above 85%) |  |
| Cc1nnc(NC(=O)c2ccc(C(F)(F)F)c([S@@+]([O-])CCCC#N)c2F)o1 [1-428 (R-configuration)] | 5 (Level 5: growth control rate is above 85%) | 5 (Level 5: growth control rate is above 85%) | 5 (Level 5: growth control rate is above 85%) |  |
| Cc1nnc(NC(=O)c2ccc(C(F)(F)F)c([S@@+]([O-])CCO)c2F)o1 [1-429 (R-configuration)] | 5 (Level 5: growth control rate is above 85%) | 5 (Level 5: growth control rate is above 85%) | 5 (Level 5: growth control rate is above 85%) |  |
| Cc1nnc(NC(=O)c2ccc(C(F)(F)F)c([S@+]([O-])CCCO)c2F)o1 [1-430 (R-configuration)] | 5 (Level 5: growth control rate is above 85%) | 5 (Level 5: growth control rate is above 85%) | 5 (Level 5: growth control rate is above 85%) |  |
| Cc1nnc(NC(=O)c2ccc(C(F)(F)F)c([S@@+]([O-])CC(C)O)c2F)o1 (stereo partly drawn) [1-431 (R-configuration)] | 5 (Level 5: growth control rate is above 85%) | 5 (Level 5: growth control rate is above 85%) | 5 (Level 5: growth control rate is above 85%) |  |
| Cc1nnc(NC(=O)c2ccc(C(F)(F)F)c([S@@+]([O-])CCCN)c2F)o1 [1-432 (R-configuration)] | 5 (Level 5: growth control rate is above 85%) | 5 (Level 5: growth control rate is above 85%) | 5 (Level 5: growth control rate is above 85%) |  |
